# According to ChEMBL document CHEMBL1201862, “PubChem BioAssay data set” (2004):
#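 A five-concentration, 48-hour dose response in 96-well plates underlies each endpoint, interpolated linearly between surrounding concentrations. GI50 is the concentration that inhibits growth by half.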 Active and inactive are the calls of the source. Cut-off read from the data, not from the text of the source: active = GI50 up to about 1.1 µM and inactive = higher.
# Columns and labels:
# Assay in all cases: NCI-60 cell line screen, 48 h
# [1] = system: HL-60
# [2] = system: ACHN
# [3] = system: OVCAR-8
# [4] = system: NCI-H23
# [5] = system: SK-OV-3
# [6] = system: Hs-578T
# [7] = system: IGROV-1
# [8] = system: SN12C
# [9] = system: DU-145
# [10] = system: MDA-MB-231
# [11] = system: M14
# [12] = system: BT-549
# [13] = system: HT-29
# [14] = system: TK-10
# [15] = system: MDA-MB-435
# [16] = system: HOP-92
# [17] = system: UACC-257
# [18] = system: SF-539
# [19] = system: SNB-75
# [20] = system: A498
Structure (SMILES),GI50 [1],GI50 [2],GI50 [3],GI50 [4],GI50 [5],GI50 [6],GI50 [7],GI50 [8],GI50 [9],GI50 [10],GI50 [11],GI50 [12],GI50 [13],GI50 [14],GI50 [15],GI50 [16],GI50 [17],GI50 [18],GI50 [19],GI50 [20]
CC(C)CC1NC(=O)CCC(NC(=O)C(Cc2ccc(O)cc2)NC(=O)OCc2ccccc2)C(=O)NC(Cc2ccccc2)C(=O)NC(Cc2ccccc2)NC1=O (stereo not drawn),> 100 µM (inactive),> 100 µM (inactive),> 100 µM (inactive),> 100 µM (inactive),0.578 µM (active),> 100 µM (inactive),> 100 µM (inactive),> 100 µM (inactive),> 100 µM (inactive),> 100 µM (inactive),> 100 µM (inactive),> 100 µM (inactive),> 100 µM (inactive),> 100 µM (inactive),> 100 µM (inactive),> 100 µM (inactive),> 100 µM (inactive),> 100 µM (inactive),> 100 µM (inactive),
O=C(Cc1ccccc1)NNc1nc(NNC(=O)c2ccncc2)nc(Nc2cccc(Cl)c2)n1,> 10 µM (inactive),,> 10 µM (inactive),> 10 µM (inactive),> 10 µM (inactive),> 10 µM (inactive),> 10 µM (inactive),> 10 µM (inactive),> 10 µM (inactive),> 10 µM (inactive),> 10 µM (inactive),> 10 µM (inactive),> 10 µM (inactive),> 10 µM (inactive),,> 10 µM (inactive),> 10 µM (inactive),> 10 µM (inactive),> 10 µM (inactive),
CCN(CC)CCCNc1nc2ccccc2[n+]([O-])n1,> 100 µM (inactive),> 100 µM (inactive),> 100 µM (inactive),> 100 µM (inactive),,,> 100 µM (inactive),> 100 µM (inactive),> 100 µM (inactive),> 100 µM (inactive),> 100 µM (inactive),> 100 µM (inactive),> 100 µM (inactive),> 100 µM (inactive),> 100 µM (inactive),> 100 µM (inactive),> 100 µM (inactive),> 100 µM (inactive),64.1 µM (inactive),> 100 µM (inactive)
CN(C)CCCNC(=O)c1cc(NC(=O)c2cc(NC(=O)[C@H]3C[C@@H]3C(=O)Nc3cc(C(=O)Nc4cc(C(=O)NCCCN(C)C)n(C)c4)n(C)c3)cn2C)cn1C,> 100 µM (inactive),> 100 µM (inactive),> 100 µM (inactive),> 100 µM (inactive),,,> 100 µM (inactive),> 100 µM (inactive),> 100 µM (inactive),> 100 µM (inactive),> 100 µM (inactive),> 100 µM (inactive),> 100 µM (inactive),> 10 µM (inactive),> 100 µM (inactive),3.24 µM (inactive),> 100 µM (inactive),> 100 µM (inactive),> 100 µM (inactive),
O=C1c2ccccc2-c2nc(-c3cccc([N+](=O)[O-])c3)nnc21,3.07 µM (inactive),3.98 µM (inactive),11.4 µM (inactive),17.6 µM (inactive),> 100 µM (inactive),12.4 µM (inactive),28.8 µM (inactive),21.4 µM (inactive),4.25 µM (inactive),16.6 µM (inactive),23 µM (inactive),19.5 µM (inactive),1.82 µM (inactive),18.7 µM (inactive),1.97 µM (inactive),> 100 µM (inactive),3.24 µM (inactive),22.6 µM (inactive),21.4 µM (inactive),
CCOC(=O)c1c(SCCN2CCCCC2)n(-c2ccccc2)c(=S)n(-c2ccccc2)c1=O,3.49 µM (inactive),17.7 µM (inactive),22.9 µM (inactive),16.9 µM (inactive),36.2 µM (inactive),26.1 µM (inactive),> 10 µM (inactive),19.2 µM (inactive),29.6 µM (inactive),21.2 µM (inactive),28.6 µM (inactive),16.6 µM (inactive),15.3 µM (inactive),18 µM (inactive),16.3 µM (inactive),16.3 µM (inactive),12.4 µM (inactive),,15 µM (inactive),
CCCCCCCCCCCCCOCCOCCOCCCCC(O)CCCCCCCCCC1=C[C@H](C)OC1=O (stereo partly drawn),0.356 µM (active),28.6 µM (inactive),18.7 µM (inactive),13.7 µM (inactive),31.8 µM (inactive),14.9 µM (inactive),18.1 µM (inactive),21.4 µM (inactive),21.7 µM (inactive),22.4 µM (inactive),27.2 µM (inactive),11.1 µM (inactive),15.6 µM (inactive),2.94 µM (inactive),16.9 µM (inactive),,13.2 µM (inactive),18.7 µM (inactive),21.1 µM (inactive),
CCOC(=O)c1cc(C2CCN(c3ccccc3)C2=O)c(C(=O)/C=C(/C)O)[nH]1 (stereo not drawn),27.2 µM (inactive),> 100 µM (inactive),> 100 µM (inactive),55.6 µM (inactive),96.4 µM (inactive),93.8 µM (inactive),> 100 µM (inactive),> 100 µM (inactive),> 100 µM (inactive),81.5 µM (inactive),> 100 µM (inactive),61.2 µM (inactive),> 100 µM (inactive),> 100 µM (inactive),60.8 µM (inactive),,89.1 µM (inactive),8.38 µM (inactive),74.5 µM (inactive),> 100 µM (inactive)
COc1cc2c(c(O)c1OC)C(O)C1CCC(=O)N1C2c1ccc2c(c1)OCO2 (stereo not drawn),> 100 µM (inactive),> 100 µM (inactive),> 100 µM (inactive),> 100 µM (inactive),> 100 µM (inactive),,> 100 µM (inactive),> 100 µM (inactive),> 100 µM (inactive),> 100 µM (inactive),> 100 µM (inactive),> 100 µM (inactive),80.2 µM (inactive),> 100 µM (inactive),> 100 µM (inactive),> 100 µM (inactive),> 100 µM (inactive),> 100 µM (inactive),81.3 µM (inactive),> 100 µM (inactive)
COC(=O)c1cc(C#Cc2cc(OC)ccc2OC)ccc1OC,31.1 µM (inactive),42.7 µM (inactive),37.1 µM (inactive),41.4 µM (inactive),45.4 µM (inactive),> 100 µM (inactive),53.2 µM (inactive),,,> 100 µM (inactive),34.8 µM (inactive),37.7 µM (inactive),38.5 µM (inactive),54.6 µM (inactive),41.3 µM (inactive),22.9 µM (inactive),37.2 µM (inactive),,33.8 µM (inactive),
COC1OC2COC1(OCc1ccccc1)C1OC(C)(C)OC21 (stereo not drawn),,> 100 µM (inactive),> 100 µM (inactive),> 100 µM (inactive),> 100 µM (inactive),> 100 µM (inactive),> 100 µM (inactive),> 100 µM (inactive),> 100 µM (inactive),> 100 µM (inactive),> 100 µM (inactive),> 100 µM (inactive),> 100 µM (inactive),> 100 µM (inactive),> 100 µM (inactive),,> 100 µM (inactive),,> 100 µM (inactive),> 100 µM (inactive)
O=C(/C=C/c1ccc(-c2ccccc2)cc1)NCc1ccc(C(=O)NCCc2ccccc2)cc1,,> 100 µM (inactive),36.2 µM (inactive),> 100 µM (inactive),> 100 µM (inactive),,> 100 µM (inactive),> 100 µM (inactive),> 100 µM (inactive),38.1 µM (inactive),> 100 µM (inactive),> 100 µM (inactive),28.1 µM (inactive),> 100 µM (inactive),> 100 µM (inactive),54.6 µM (inactive),> 100 µM (inactive),12.3 µM (inactive),49.3 µM (inactive),> 100 µM (inactive)
COc1cc(OC)c(-n2[nH]c(=O)n(C)c2=O)c(OC)c1,> 100 µM (inactive),,> 100 µM (inactive),> 100 µM (inactive),> 100 µM (inactive),> 100 µM (inactive),> 100 µM (inactive),> 100 µM (inactive),> 100 µM (inactive),> 100 µM (inactive),> 100 µM (inactive),> 100 µM (inactive),> 100 µM (inactive),> 100 µM (inactive),> 100 µM (inactive),,> 100 µM (inactive),> 100 µM (inactive),> 100 µM (inactive),> 100 µM (inactive)
CC(C)CNC(=O)Cn1c(-c2ccccc2)cc2ccccc21,> 100 µM (inactive),> 100 µM (inactive),> 100 µM (inactive),> 100 µM (inactive),> 100 µM (inactive),19.5 µM (inactive),> 100 µM (inactive),> 100 µM (inactive),> 100 µM (inactive),,> 100 µM (inactive),> 100 µM (inactive),> 100 µM (inactive),> 100 µM (inactive),> 100 µM (inactive),,> 100 µM (inactive),> 100 µM (inactive),> 100 µM (inactive),
CC(Cn1c2c(c3cc(O)ccc31)CCc1ccc(O)cc1-2)N(C)C (stereo not drawn),64.1 µM (inactive),15.8 µM (inactive),17.7 µM (inactive),19.6 µM (inactive),25.2 µM (inactive),17.1 µM (inactive),12.8 µM (inactive),29.4 µM (inactive),,26 µM (inactive),14.1 µM (inactive),16.3 µM (inactive),18.2 µM (inactive),18.7 µM (inactive),17.9 µM (inactive),,19.9 µM (inactive),16.1 µM (inactive),15.8 µM (inactive),26.3 µM (inactive)
